From US20250188069A1, “COMPOUNDS AND METHODS FOR DEGRADING CASEIN KINASE 1 ALPHA” (PIN THERAPEUTICS, INC., priority 2022, published 2025) come the findings set out here.

pIC50: −log10 of the molar value. Structures can show the parent of a compound that is named as a salt. Where two headings read alike, the source gives them in different places.

One assay concerns the target CK1α (Homo sapiens, UniProt P48729+Q96SW2). The assay is described as follows: CK1α degradation, flow cytometry in MV4-11 cells. The class given is cell-based. More on the design: CK1α levels were determined in MV-4-11 cells using Jess (Protein Simple); host or cells: MV-4-11. Particulars: % reduction of CK1α compared to DMSO, MV4-11 cells at 316 nM for 16 hours, read-out: CK1α degradation classification.

In another assay the test system is MV-4-11 cells. Briefly: AML cell viability assay (RealTime-Glo). The class given is cell-based. Particulars: Homo sapiens, read-out: Cell viability classification.
Setting [1] is: MV4-11, IC50 class, MV-4-11 cells, RealTime-Glo after 44 hrs of treatment (TABLE 3).

CK1α, sequence (P48729 whole entry): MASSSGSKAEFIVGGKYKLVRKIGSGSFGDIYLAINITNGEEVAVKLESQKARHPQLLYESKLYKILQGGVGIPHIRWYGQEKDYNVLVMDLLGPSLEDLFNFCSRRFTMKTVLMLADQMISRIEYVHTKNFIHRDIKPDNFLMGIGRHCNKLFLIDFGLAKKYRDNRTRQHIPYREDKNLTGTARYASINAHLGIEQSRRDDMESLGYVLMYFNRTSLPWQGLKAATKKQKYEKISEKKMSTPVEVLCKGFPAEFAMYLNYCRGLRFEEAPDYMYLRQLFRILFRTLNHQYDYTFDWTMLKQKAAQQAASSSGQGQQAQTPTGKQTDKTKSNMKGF
CK1α, sequence (Q96SW2 whole entry): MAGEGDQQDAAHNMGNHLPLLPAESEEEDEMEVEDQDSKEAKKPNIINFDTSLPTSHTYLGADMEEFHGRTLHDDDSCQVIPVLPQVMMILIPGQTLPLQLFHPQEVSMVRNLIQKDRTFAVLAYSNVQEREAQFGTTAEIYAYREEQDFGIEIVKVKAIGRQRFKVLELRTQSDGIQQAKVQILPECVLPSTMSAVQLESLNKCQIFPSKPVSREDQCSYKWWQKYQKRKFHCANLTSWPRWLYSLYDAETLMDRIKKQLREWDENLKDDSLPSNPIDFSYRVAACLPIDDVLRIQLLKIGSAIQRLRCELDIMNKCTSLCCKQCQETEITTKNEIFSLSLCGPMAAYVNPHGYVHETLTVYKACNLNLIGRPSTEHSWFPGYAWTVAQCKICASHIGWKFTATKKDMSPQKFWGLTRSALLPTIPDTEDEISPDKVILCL
CK1α, sequence (Q16531 whole entry partner): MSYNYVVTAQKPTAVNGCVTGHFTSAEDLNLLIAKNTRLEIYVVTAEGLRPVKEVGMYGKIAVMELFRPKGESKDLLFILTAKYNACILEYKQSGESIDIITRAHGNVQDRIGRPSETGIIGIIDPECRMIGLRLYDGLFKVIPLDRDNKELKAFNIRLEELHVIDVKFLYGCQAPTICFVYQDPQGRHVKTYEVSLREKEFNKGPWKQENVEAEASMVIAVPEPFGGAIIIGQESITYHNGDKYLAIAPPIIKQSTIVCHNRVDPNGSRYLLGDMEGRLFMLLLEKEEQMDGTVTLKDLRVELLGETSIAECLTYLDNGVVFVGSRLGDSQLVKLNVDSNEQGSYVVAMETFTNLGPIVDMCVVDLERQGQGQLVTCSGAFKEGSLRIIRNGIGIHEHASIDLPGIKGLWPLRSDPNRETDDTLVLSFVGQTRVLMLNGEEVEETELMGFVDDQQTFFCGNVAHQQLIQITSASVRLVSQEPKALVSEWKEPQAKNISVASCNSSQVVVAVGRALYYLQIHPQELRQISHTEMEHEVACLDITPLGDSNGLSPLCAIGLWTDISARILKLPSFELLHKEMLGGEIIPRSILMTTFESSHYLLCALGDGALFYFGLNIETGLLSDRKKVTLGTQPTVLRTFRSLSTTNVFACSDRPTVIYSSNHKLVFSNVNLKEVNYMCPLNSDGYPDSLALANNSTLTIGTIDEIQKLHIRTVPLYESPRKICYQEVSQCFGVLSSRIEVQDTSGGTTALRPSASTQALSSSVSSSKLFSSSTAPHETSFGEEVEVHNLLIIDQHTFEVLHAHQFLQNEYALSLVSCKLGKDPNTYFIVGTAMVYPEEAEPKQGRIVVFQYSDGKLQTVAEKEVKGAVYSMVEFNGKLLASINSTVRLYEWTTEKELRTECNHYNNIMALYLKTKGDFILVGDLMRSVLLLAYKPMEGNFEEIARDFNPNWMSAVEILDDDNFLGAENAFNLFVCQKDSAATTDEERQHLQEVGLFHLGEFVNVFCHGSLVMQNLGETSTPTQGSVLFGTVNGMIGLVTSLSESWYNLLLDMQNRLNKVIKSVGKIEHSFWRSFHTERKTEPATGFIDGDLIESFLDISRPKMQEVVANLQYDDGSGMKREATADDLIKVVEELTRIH

Turning to `O=C1CCC(N2Cc3c(cccc3N(CCC3CC3)[C@H]3CC[C@H](NC4CC(F)(F)C4)CC3)C2=O)C(=O)N1` (stereo partly drawn) [Compound 515, 3-(4-((2-cyclopropylethyl)((1r,4r)-4-((3,3-difluorocyclobutyl)amino)cyclohexyl)amino)-1-oxoisoindolin-2-yl)piperidine-2,6-dione formate], on CK1α, the Dmax at 0.316 µM was 50 to 75%. The pIC50 in the assay on MV-4-11 cells (setting [1]) was below 6.00.

Turning to `O=C1CCC(N2Cc3c(cccc3N(CCC3CC3)[C@H]3CC[C@@H](NC4CC(F)(F)C4)CC3)C2=O)C(=O)N1` (stereo partly drawn) [Compound 515A, 3-(4-((2-cyclopropylethyl)((1s,4s)-4-((3,3-difluorocyclobutyl)amino)cyclohexyl)amino)-1-oxoisoindolin-2-yl)piperidine-2,6-dione formate], the Dmax at 0.316 µM at CK1α was 50 to 75%. For the same molecule, the pIC50 in the assay on MV-4-11 cells (setting [1]) was 6.00 to 7.00.

As to `O=C1CCC(N2Cc3c(cccc3N(CCC3CC3)[C@H]3CC[C@H](NCCC(F)(F)F)CC3)C2=O)C(=O)N1` (stereo partly drawn) [Compound 516, 3-{4-[(2-cyclopropylethyl)[(1r,4r)-4-[(3,3,3-trifluoropropyl)amino]cyclohexyl]amino]-1-oxo-3H-isoindol-2-yl}piperidine-2,6-dione], the Dmax at 0.316 µM at CK1α was above 75%. Further, the pIC50 in the assay on MV-4-11 cells (setting [1]) is above 7.00.

For `O=C1CCC(N2Cc3c(cccc3N(CCC3CC3)[C@H]3CC[C@H](NC4COC4)CC3)C2=O)C(=O)N1` (stereo partly drawn) [Compound 517, 3-(4-((2-cyclopropylethyl)((1r,4r)-4-(oxetan-3-ylamino)cyclohexyl)amino)-1-oxoisoindolin-2-yl)piperidine-2,6-dione], the Dmax at 0.316 µM at CK1α was above 75%. For the same molecule, the pIC50 with MV-4-11 cells (setting [1]) is above 7.00.

On to `NCC(F)(F)CCN(CCC1CC1)c1cccc2c1CN(C1CCC(=O)NC1=O)C2=O` (stereo not drawn) [Compound 518, 3-(4-((4-amino-3,3-difluorobutyl)(2-cyclopropylethyl)amino)-1-oxoisoindolin-2-yl)piperidine-2,6-dione], for which the Dmax at 0.316 µM at CK1α was above 75%. In addition, the pIC50 in the assay with MV-4-11 cells (setting [1]) is 6.00 to 7.00.

With `NCC(CCN(CCC1CC1)c1cccc2c1CN(C1CCC(=O)NC1=O)C2=O)C(F)(F)F` (stereo not drawn) [Compound 519, 3-(4-{[4-amino-3-(trifluoromethyl)butyl](2-cyclopropylethyl)amino}-1-oxo-3H-isoindol-2-yl)piperidine-2,6-dione], at CK1α, the Dmax at 0.316 µM is 50 to 75%. Besides, in the assay on MV-4-11 cells (MV4-11, 44 h), the pIC50 is 6.00 to 7.00.

In the case of `N[C@@H]1CC[C@@H](N(CCC2CC2)c2cccc3c2CN(C2CCC(=O)NC2=O)C3=O)C[C@H]1F` (stereo partly drawn) [Compound 521, 3-(4-(((1R,3R,4R)-4-amino-3-fluorocyclohexyl)(2-cyclopropylethyl)amino)-1-oxoisoindolin-2-yl)piperidine-2,6-dione; formic acid], the Dmax at 0.316 µM on CK1α was above 75%. The pIC50 in the assay on MV-4-11 cells (setting [1]) was above 7.00.

Regarding `NC[C@H]1CC[C@@H](N(CCC2CC2)c2cccc3c2CN(C2CCC(=O)NC2=O)C3=O)CO1` (stereo partly drawn) [Compound 522, 3-(4-{[(3R,6R)-6-(aminomethyl)oxan-3-yl](2-cyclopropylethyl)amino}-1-oxo-3H-isoindol-2-yl)piperidine-2,6-dione], on CK1α, the Dmax at 0.316 µM is above 75%. Moreover, the pIC50 in the assay with MV-4-11 cells (setting [1]) is above 7.00.

As for `NC[C@]1(O)CC[C@H](N(CCC2CC2)c2cccc3c2CN(C2CCC(=O)NC2=O)C3=O)CC1` (stereo partly drawn) [Compound 523, 3-(4-(((1r,4r)-4-(aminomethyl)-4-hydroxycyclohexyl)(2-cyclopropylethyl)amino)-1-oxoisoindolin-2-yl)piperidine-2,6-dione], the Dmax at 0.316 µM at CK1α lay in the range of 50 to 75%. The pIC50 in the assay with MV-4-11 cells (setting [1]) is 6.00 to 7.00.

On to `NC[C@]1(O)CC[C@H](N(CCCC(F)(F)F)c2cccc3c2CN(C2CCC(=O)NC2=O)C3=O)CC1` (stereo partly drawn) [Compound 530, 3-(4-(((1r,4r)-4-(aminomethyl)-4-hydroxycyclohexyl)(4,4,4-trifluorobutyl)amino)-1-oxoisoindolin-2-yl)piperidine-2,6-dione], for which the Dmax at 0.316 µM at CK1α is below 50%. The pIC50 with MV-4-11 cells (setting [1]) is below 6.00.

`O=C1CCC(N2Cc3c(cccc3N(CC3CC3)[C@H]3CC[C@H](NC4CC(F)(F)C4)CC3)C2=O)C(=O)N1` (stereo partly drawn) [Compound 532, 3-(4-((cyclopropylmethyl)((lr,4r)-4-((3,3-difluorocyclobutyl)amino)cyclohexyl)amino)-1-oxoisoindolin-2-yl)piperidine-2,6-dione]: the Dmax at 0.316 µM on CK1α is above 75%. The pIC50 with MV-4-11 cells (setting [1]) is above 7.00.

In the case of `O=C1CCC(N2Cc3c(cccc3N(CC3CC3)[C@H]3CC[C@H](NCCC(F)(F)F)CC3)C2=O)C(=O)N1` (stereo partly drawn) [Compound 533, 3-(4-((cyclopropylmethyl)((1r,4r)-4-((3,3,3-trifluoropropyl)amino)cyclohexyl)amino)-1-oxoisoindolin-2-yl)piperidine-2,6-dione], the Dmax at 0.316 µM at CK1α was above 75%. The pIC50 in the assay on MV-4-11 cells (setting [1]) is above 7.00.

As for `O=C1CCC(N2Cc3c(cccc3N(CC3CC3)[C@H]3CC[C@H](NC4COC4)CC3)C2=O)C(=O)N1` (stereo partly drawn) [Compound 534, 3-(4-((cyclopropylmethyl)((1r,4r)-4-(oxetan-3-ylamino)cyclohexyl)amino)-1-oxoisoindolin-2-yl)piperidine-2,6-dione], the Dmax at 0.316 µM on CK1α is above 75%. The pIC50 in the assay with MV-4-11 cells (setting [1]) was above 7.00.

Consider `N[C@@H]1CC[C@@H](N(CC2CC2)c2cccc3c2CN(C2CCC(=O)NC2=O)C3=O)C[C@H]1F` (stereo partly drawn) [Compound 535, 3-(4-(((1R,3R,4R)-4-amino-3-fluorocyclohexyl)(cyclopropylmethyl)amino)-1-oxoisoindolin-2-yl)piperidine-2,6-dione; formic acid], for which, on CK1α, the Dmax at 0.316 µM was in the range of 50 to 75%. In addition, the pIC50 in the assay with MV-4-11 cells (setting [1]) is above 7.00.

Turning to `NC[C@]1(O)CC[C@H](N(CC2CC2)c2cccc3c2CN(C2CCC(=O)NC2=O)C3=O)CC1` (stereo partly drawn) [Compound 536, 3-(4-(((1r,4r)-4-(aminomethyl)-4-hydroxycyclohexyl)(cyclopropylmethyl)amino)-1-oxoisoindolin-2-yl)piperidine-2,6-dione], at CK1α, the Dmax at 0.316 µM is below 50%. For the same molecule, the pIC50 in the assay with MV-4-11 cells (setting [1]) is 6.00 to 7.00.

Take `O=C1CCC(N2Cc3c(cccc3N(CCC3CC3)[C@H]3CC[C@H](NCC(F)F)CC3)C2=O)C(=O)N1` (stereo partly drawn) [Compound 539, 3-{4-[(2-cyclopropylethyl)[(1s,4s)-4-[(2,2-difluoroethyl)amino]cyclohexyl]amino]-1-oxo-3H-isoindol-2-yl}piperidine-2,6-dione]: the Dmax at 0.316 µM at CK1α was in the range of 50 to 75%. For the same molecule, the pIC50 with MV-4-11 cells (setting [1]) is 6.00 to 7.00.

On to `O=C1CCC(N2Cc3c(cccc3N(CCC3CC3)[C@H]3CC[C@@H](NCC(F)F)CC3)C2=O)C(=O)N1` (stereo partly drawn) [Compound 539A, 3-{4-[(2-cyclopropylethyl)[(1r,4r)-4-[(2,2-difluoroethyl)amino]cyclohexyl]amino]-1-oxo-3H-isoindol-2-yl}piperidine-2,6-dione], for which, at CK1α, the Dmax at 0.316 µM is above 75%. Besides, the pIC50 with MV-4-11 cells (setting [1]) was above 7.00.

Regarding `O=C1CCC(N2Cc3c(cccc3N(CCC3CC3)[C@H]3CC[C@H](NC(CF)CF)CC3)C2=O)C(=O)N1` (stereo partly drawn) [Compound 540, 3-{4-[(2-cyclopropylethyl)[(1r,4r)-4-[(1,3-difluoropropan-2-yl)amino]cyclohexyl]amino]-1-oxo-3H-isoindol-2-yl}piperidine-2,6-dione], at CK1α, the Dmax at 0.316 µM is 50 to 75%. For the same molecule, the pIC50 in the assay on MV-4-11 cells (MV4-11, 44 h) was 6.00 to 7.00.

`COC(C)(C)CN[C@H]1CC[C@H](N(CCC2CC2)c2cccc3c2CN(C2CCC(=O)NC2=O)C3=O)CC1` (stereo partly drawn) [Compound 541, 3-(4-((2-cyclopropylethyl)((1r,4r)-4-((2-methoxy-2-methylpropyl)amino)cyclohexyl)amino)-1-oxoisoindolin-2-yl)piperidine-2,6-dione]: the Dmax at 0.316 µM at CK1α is above 75%. For the same molecule, in the assay on MV-4-11 cells (setting [1]), the pIC50 is above 7.00.

Consider `COC(C)(C)CN[C@H]1CC[C@@H](N(CCC2CC2)c2cccc3c2CN(C2CCC(=O)NC2=O)C3=O)CC1` (stereo partly drawn) [Compound 541A, 3-(4-((2-cyclopropylethyl)((1s,4s)-4-((2-methoxy-2-methylpropyl)amino)cyclohexyl)amino)-1-oxoisoindolin-2-yl)piperidine-2,6-dione], for which, at CK1α, the Dmax at 0.316 µM fell in the range of 50 to 75%. For the same molecule, the pIC50 in the assay on MV-4-11 cells (setting [1]) is 6.00 to 7.00.

With `COCCN[C@H]1CC[C@H](N(CCC2CC2)c2cccc3c2CN(C2CCC(=O)NC2=O)C3=O)CC1` (stereo partly drawn) [Compound 542, 3-{4-[(2-cyclopropylethyl)[(1r,4r)-4-[(2-methoxyethyl)amino]cyclohexyl]amino]-1-oxo-3H-isoindol-2-yl}piperidine-2,6-dione], the Dmax at 0.316 µM at CK1α is above 75%. In addition, the pIC50 in the assay with MV-4-11 cells (setting [1]) was above 7.00.

For `N#CCCCN[C@H]1CC[C@H](N(CCC2CC2)c2cccc3c2CN(C2CCC(=O)NC2=O)C3=O)CC1` (stereo partly drawn) [Compound 543, 4-{[(1r,4r)-4-[(2-cyclopropylethyl)[2-(2,6-dioxopiperidin-3-yl)-1-oxo-3H-isoindol-4-yl]amino]cyclohexyl]amino}butanenitrile], the Dmax at 0.316 µM on CK1α was above 75%. For the same molecule, the pIC50 in the assay with MV-4-11 cells (setting [1]) was above 7.00.

For `O=C1CCC(N2Cc3c(cccc3N(CCC3CC3)[C@H]3CC[C@H](NCC(=O)N4CCC4)CC3)C2=O)C(=O)N1` (stereo partly drawn) [Compound 546, 3-{4-[(2-cyclopropylethyl)[(1r,4r)-4-{[2-(azetidin-1-yl)-2-oxoethyl]amino}cyclohexyl]amino]-1-oxo-3H-isoindol-2-yl}piperidine-2,6 dione], the Dmax at 0.316 µM on CK1α was above 75%. For the same molecule, the pIC50 in the assay with MV-4-11 cells (setting [1]) was above 7.00.

With `CC(CC(F)(F)F)N[C@H]1CC[C@H](N(CCC2CC2)c2cccc3c2CN(C2CCC(=O)NC2=O)C3=O)CC1` (stereo partly drawn) [Compound 547, 3-{4-[(2-cyclopropylethyl)[(1r,4r)-4-[(4,4,4-trifluorobutan-2-yl)amino]cyclohexyl]amino]-1-oxo-3H-isoindol-2-yl}piperidine-2,6-dione], the Dmax at 0.316 µM at CK1α is above 75%. Besides, the pIC50 in the assay with MV-4-11 cells (setting [1]) was above 7.00.
